Experimental data from patent US12655116B2, “Substituted isophthalic acid diamides” (Bayer Aktiengesellschaft, priority 2020, dated 2026).

Columns and labels:
[1] = tested on: ABUTH; assay: Pre-emergence herbicidal action against ABUTH; type: in vivo, Abutilon theophrasti; conditions: Abutilon theophrasti, 504 h
Summary of the method: (§1)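 Greenhouse pots of sandy loam held seeds covered with soil, onto which the compound was applied before emergence. An aqueous suspension or emulsion of WP or EC was used at 600 to 800 l/ha with 0.2% wetting agent. Percent damage was judged visually at 3 weeks.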

[2] = tested on: ALOMY; assay: Pre-emergence herbicidal action against ALOMY; type: in vivo, Alopecurus myosuroides; conditions: Alopecurus myosuroides, 504 h; 80 g/ha, pre-emergence, scored visually after 3 weeks vs untreated controls (100% = plants have died, 0% = like control plants)
Summary of the method: as §1

[3] = tested on: AMARE; assay: Pre-emergence herbicidal action against AMARE; type: in vivo, Amaranthus retroflexus; conditions: Amaranthus retroflexus, 504 h, scored visually after 3 weeks vs untreated controls, 100% = plants have died, 0% = like control plants
Summary of the method: as §1

[4] = tested on: AVEFA; assay: Pre-emergence herbicidal action against AVEFA; type: in vivo, Avena fatua; conditions: Avena fatua, 504 h; 80 g/ha, pre-emergence
Summary of the method: as §1

[5] = tested on: ECHCG; assay: Pre-emergence herbicidal action against ECHCG; type: in vivo, Echinochloa crus-galli; conditions: Echinochloa crus-galli, 504 h, 80 g/ha
Summary of the method: as §1

[6] = tested on: LOLRI; assay: Pre-emergence herbicidal action against LOLRI; type: in vivo, Lolium rigidum; conditions: Lolium rigidum, 504 h, 80 g/ha
Summary of the method: as §1

[7] = tested on: MATIN; assay: Pre-emergence herbicidal action against MATIN; type: in vivo, Matricaria inodora; conditions: Tripleurospermum inodorum, 504 h
Summary of the method: as §1

[8] = tested on: PHBPU; assay: Pre-emergence herbicidal action against PHBPU; type: in vivo, Pharbitis purpurea; conditions: Ipomoea purpurea, 504 h, dosage 80 g/ha
Summary of the method: as §1

[9] = tested on: POLCO; assay: Pre-emergence herbicidal action against POLCO; type: in vivo, Polygonum convolvulus; conditions: Fallopia convolvulus, 504 h, dosage 80 g/ha
Summary of the method: as §1

[10] = tested on: SETVI; assay: Pre-emergence herbicidal action against SETVI; type: in vivo, Setaria viridis; conditions: Setaria viridis, 504 h
Summary of the method: as §1

[11] = tested on: STEME; assay: Pre-emergence herbicidal action against STEME; type: in vivo, Stellaria media; conditions: Stellaria media, 504 h
Summary of the method: as §1

[12] = tested on: VERPE; assay: Pre-emergence herbicidal action against VERPE; type: in vivo, Veronica persica; conditions: Veronica persica, 504 h, dosage 80 g/ha
Summary of the method: as §1

[13] = tested on: VIOTR; assay: Pre-emergence herbicidal action against VIOTR; type: in vivo, Viola tricolor; conditions: Viola tricolor, 504 h
Summary of the method: as §1

[14] = tested on: DIGSA; assay: Pre-emergence herbicidal action against DIGSA; type: in vivo, Digitaria sanguinalis; conditions: Digitaria sanguinalis, 504 h
Summary of the method: as §1

[15] = tested on: ABUTH; assay: Post-emergence herbicidal action against ABUTH; type: in vivo, Abutilon theophrasti; conditions: Abutilon theophrasti, 504 h, visual assessment about 3 weeks after treatment vs untreated controls
Summary of the method: (§2)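 Foliar application at one-leaf stage of formulated test compounds, aqueous spray at 600–800 l/ha with 0.2% wetting agent. Greenhouse, optimal conditions, ~3 weeks; damage scored visually in % relative to untreated plants.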

[16] = tested on: ALOMY; assay: Post-emergence herbicidal action against ALOMY; type: in vivo, Alopecurus myosuroides; conditions: Alopecurus myosuroides, 504 h, dosage 20 g/ha, visual assessment about 3 weeks after treatment vs untreated controls
Summary of the method: as §2

[17] = tested on: AMARE; assay: Post-emergence herbicidal action against AMARE; type: in vivo, Amaranthus retroflexus; conditions: Amaranthus retroflexus, 504 h, 20 g/ha, visual assessment about 3 weeks after treatment, 100% = plants have died, 0% = like control plants
Summary of the method: as §2

[18] = tested on: AVEFA; assay: Post-emergence herbicidal action against AVEFA; type: in vivo, Avena fatua; conditions: Avena fatua, 504 h, 20 g/ha, visual assessment about 3 weeks after treatment, 100% = plants have died, 0% = like control plants
Summary of the method: as §2

[19] = tested on: ECHCG; assay: Post-emergence herbicidal action against ECHCG; type: in vivo, Echinochloa crus-galli; conditions: Echinochloa crus-galli, 504 h
Summary of the method: as §2

[20] = tested on: HORMU; assay: Post-emergence herbicidal action against HORMU; type: in vivo, Hordeum murinum; conditions: Hordeum murinum, 504 h, dosage 20 g/ha
Summary of the method: as §2

[21] = tested on: LOLRI; assay: Post-emergence herbicidal action against LOLRI; type: in vivo, Lolium rigidum; conditions: Lolium rigidum, 504 h, dosage 20 g/ha
Summary of the method: as §2

[22] = tested on: MATIN; assay: Post-emergence herbicidal action against MATIN; type: in vivo, Matricaria inodora; conditions: Tripleurospermum inodorum, 504 h, dosage 20 g/ha
Summary of the method: as §2

[23] = tested on: PHBPU; assay: Post-emergence herbicidal action against PHBPU; type: in vivo, Pharbitis purpurea; conditions: Ipomoea purpurea, 504 h
Summary of the method: as §2

[24] = tested on: SETVI; assay: Post-emergence herbicidal action against SETVI; type: in vivo, Setaria viridis; conditions: Setaria viridis, 504 h
Summary of the method: as §2

[25] = tested on: STEME; assay: Post-emergence herbicidal action against STEME; type: in vivo, Stellaria media; conditions: Stellaria media, 504 h
Summary of the method: as §2

[26] = tested on: VERPE; assay: Post-emergence herbicidal action against VERPE; type: in vivo, Veronica persica; conditions: Veronica persica, 504 h, 20 g/ha
Summary of the method: as §2

[27] = tested on: VIOTR; assay: Post-emergence herbicidal action against VIOTR; type: in vivo, Viola tricolor; conditions: Viola tricolor, 504 h, 20 g/ha
Summary of the method: as §2

[28] = tested on: DIGSA; assay: Post-emergence herbicidal action against DIGSA; type: in vivo, Digitaria sanguinalis; conditions: Digitaria sanguinalis, 504 h
Summary of the method: as §2

## CCNC(=O)c1c(C(F)(F)F)ccc(C(=O)Nc2nnnn2C)c1SC [Example 1-82]
[1]; 80 g/ha, scored visually after 3 weeks vs untreated controls (100% = plants have died, 0% = like control plants)
  pest or weed control at 80 g/ha: 100%
[1]; dosage 20 g/ha, scored visually after 3 weeks vs untreated controls, 100% = plants have died, 0% = like control plants, read-out: Pre-emergence action against ABUTH (herbicidal activity in percent)
  pest or weed control at 20 g/ha: 100%
[2]
  pest or weed control at 80 g/ha: 80%
[3]; 20 g/ha
  pest or weed control at 20 g/ha: 90%
[3]; 80 g/ha
  pest or weed control at 80 g/ha: 100%
[4]
  pest or weed control at 80 g/ha: 90%
[5]
  pest or weed control at 80 g/ha: 100%
[6]
  pest or weed control at 80 g/ha: 80%
[7]; dosage 20 g/ha
  pest or weed control at 20 g/ha: 100%
[7]; dosage 80 g/ha
  pest or weed control at 80 g/ha: 100%
[8]
  pest or weed control at 80 g/ha: 80%
[9]
  pest or weed control at 80 g/ha: 90%
[10]; dosage 20 g/ha
  pest or weed control at 20 g/ha: 80%
[10]; dosage 80 g/ha
  pest or weed control at 80 g/ha: 100%
[11]; dosage 20 g/ha
  pest or weed control at 20 g/ha: 100%
[11]; dosage 80 g/ha
  pest or weed control at 80 g/ha: 100%
[12]
  pest or weed control at 80 g/ha: 90%
[13]; dosage 20 g/ha
  pest or weed control at 20 g/ha: 100%
[13]; dosage 80 g/ha
  pest or weed control at 80 g/ha: 100%
[14]; dosage 20 g/ha
  pest or weed control at 20 g/ha: 100%
[14]; dosage 80 g/ha
  pest or weed control at 80 g/ha: 100%
[15]; dosage 5 g/ha
  pest or weed control at 5 g/ha: 90%
[15]; dosage 20 g/ha
  pest or weed control at 20 g/ha: 90%
[16]
  pest or weed control at 20 g/ha: 90%
[17]
  pest or weed control at 20 g/ha: 90%
[18]
  pest or weed control at 20 g/ha: 90%
[19]; dosage 5 g/ha
  pest or weed control at 5 g/ha: 80%
[19]; dosage 20 g/ha
  pest or weed control at 20 g/ha: 90%
[20]
  pest or weed control at 20 g/ha: 90%
[21]
  pest or weed control at 20 g/ha: 80%
[22]
  pest or weed control at 20 g/ha: 80%
[23]; dosage 5 g/ha
  pest or weed control at 5 g/ha: 80%
[23]; dosage 20 g/ha
  pest or weed control at 20 g/ha: 90%
[24]; dosage 5 g/ha
  pest or weed control at 5 g/ha: 80%
[24]; dosage 20 g/ha
  pest or weed control at 20 g/ha: 90%
[25]; 20 g/ha
  pest or weed control at 20 g/ha: 90%
[25]; dosage 5 g/ha
  pest or weed control at 5 g/ha: 90%
[26]
  pest or weed control at 20 g/ha: 80%
[27]
  pest or weed control at 20 g/ha: 90%
[28]; 5 g/ha
  pest or weed control at 5 g/ha: 90%
[28]; 20 g/ha
  pest or weed control at 20 g/ha: 90%
